In ChEMBL document CHEMBL6127068, “Discovery of novel nitrofuran PROTAC-like compounds as dual inhibitors and degraders targeting STING” (Eur J Med Chem, 2024):
Active and inactive are the calls of the source.

Key:
[1] = molecular target: T1, Protein cereblon/Stimulator of interferon genes protein (Homo sapiens, UniProt Q96SW2+Q86WV6); test: PROTAC activity at CRBN/STING in human THP-1 cells assessed as inhibition of cGAMP-induced TBK1 phosphorylation incubated for 24 hrs followed by stimulation with cGAMP for 24 hrs by western blot analysis; assay type: cell-based; details: dose 0.3-20 µM, time 48.0 hrs
[2] = molecular target: T1, Protein cereblon/Stimulator of interferon genes protein; test: PROTAC activity at CRBN/STING in human THP-1 cells assessed as induction of STING degradation at 10 uM incubated for 24 hrs by western blot analysis; assay type: cell-based
[3] = molecular target: T2, Protein cereblon/Stimulator of interferon genes protein (Mus musculus) (UniProt Q3TBT3+Q8C7D2); test: PROTAC activity at CRBN/STING in mouse RAW264.7 cells assessed as induction of STING degradation at 0.33 to 30 uM incubated for 24 hrs by western blot analysis; assay type: cell-based; details: dose 0.33-30 µM
[4] = tested on: Mus musculus; test: Anti-inflammatory activity against C57BL/6J mouse assessed as inhibition of cisplatin-induced hepatic impairment by measuring restoration of ALT activity at 25 to 50 mg/kg; assay type: functional, organism-based; details: dose 25-50 mg/kg
[5] = tested on: Mus musculus; test: Anti-inflammatory activity against cisplatin-induced acute kidney injury C57BL/6J mouse model assessed as decrease in plasma creatinine level at 25 to 50 mg/kg; assay type: functional, organism-based; details: dose 25-50 mg/kg
[6] = molecular target: T3, Stimulator of interferon genes protein (Mus musculus) (UniProt Q3TBT3); test: Inhibition of STING in mouse RAW264.7 cells assessed as reduction in DMXAA-induced CXCL10 mRNA expression at 5 to 20 uM pretreated for 1 hr followed by stimulation with DMXAA for 24 hrs by qRT-CPR analysis; assay type: cell-based; details: dose 5-20 µM, time 25.0 hrs
T3 sequence (whole entry): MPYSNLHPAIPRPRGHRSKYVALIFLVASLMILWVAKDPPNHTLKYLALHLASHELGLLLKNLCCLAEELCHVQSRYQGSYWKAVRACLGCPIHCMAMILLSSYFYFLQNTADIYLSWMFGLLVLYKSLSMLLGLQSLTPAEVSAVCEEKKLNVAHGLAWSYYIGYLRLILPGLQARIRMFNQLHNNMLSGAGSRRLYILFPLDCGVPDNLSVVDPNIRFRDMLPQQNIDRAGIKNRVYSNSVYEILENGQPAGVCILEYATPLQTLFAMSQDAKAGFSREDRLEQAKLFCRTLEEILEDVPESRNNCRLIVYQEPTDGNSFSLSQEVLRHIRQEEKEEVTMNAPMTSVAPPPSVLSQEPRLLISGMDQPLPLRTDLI

[7] = tested on: THP-1; test: PROTAC activity at CRBN/Akt in human THP-1 cells assessed as induction of Akt degradation at 2.5 to 40 uM incubated for 24 hrs by western blot analysis; assay type: cell-based; details: dose 2.5-40 µM
[8] = molecular target: T2, Protein cereblon/Stimulator of interferon genes protein (Mus musculus); test: In vivo inhibition of STING signaling pathway in C57BL/6J mouse assessed as inhibition of cisplatin-induced ISG56 mRNA expression in kidney at 25 to 50 mg/kg by qPCR analysis; assay type: functional, organism-based; details: dose 25-50 mg/kg
[9] = Toxicity against cisplatin-induced acute kidney injury C57BL/6J mouse model assessed as effect on heart morphology at 25 to 50 mg/kg by Hematoxylin-Eosin staining based microscopic analysis; assay type: organism-based; details: in vivo, dose 25-50 mg/kg
[10] = molecular target: T1, Protein cereblon/Stimulator of interferon genes protein; test: PROTAC activity at CRBN/STING in human THP-1 cells assessed as induction of STING degradation at 3 uM pretreated with proteasome inhibitor, MG132 for 1 hr followed by incubation with compound for 24 hrs by western blot analysis; assay type: cell-based
[11] = tested on: HEK-293T; test: Cytotoxicity against HEK293T cells assessed as effect on cell viability at <10 uM incubated for 48 hrs by MTT assay; assay type: toxicity, cell-based; details: human
[12] = molecular target: T2, Protein cereblon/Stimulator of interferon genes protein (Mus musculus); test: In vivo inhibition of STING signaling pathway in C57BL/6J mouse assessed as inhibition of cisplatin-induced IFN-beta mRNA expression in kidney at 25 to 50 mg/kg by qPCR analysis; assay type: functional, organism-based; details: dose 25-50 mg/kg
[13] = molecular target: T1, Protein cereblon/Stimulator of interferon genes protein; test: PROTAC activity at CRBN/STING in human THP-1 cells assessed as inhibition of cGAMP-induced TNF-alpha mRNA expression incubated for 1 hr followed by stimulation with cGAMP for 24 hrs by qRT-PCR analysis; assay type: cell-based; details: dose 5-20 µM, time 25.0 hrs
[14] = molecular target: T2, Protein cereblon/Stimulator of interferon genes protein (Mus musculus); test: In vivo inhibition of STING signaling pathway in C57BL/6J mouse assessed as inhibition of cisplatin-induced CXCL10 mRNA expression in kidney at 25 to 50 mg/kg by qPCR analysis; assay type: functional, organism-based; details: dose 25-50 mg/kg
[15] = tested on: HUVEC; test: Cytotoxicity against HUVEC assessed as effect on cell viability at <10 uM incubated for 48 hrs by MTT assay; assay type: toxicity, cell-based; details: human
[16] = tested on: THP-1; test: Effect on STING mRNA expression in human THP-1 cells at 10 uM incubated for 12 to 48 hrs by qRT-PCR analysis; assay type: functional, cell-based; details: time 12-48 hrs
[17] = molecular target: T1, Protein cereblon/Stimulator of interferon genes protein; test: PROTAC activity at CRBN/STING in human THP-1 cells assessed as induction of STING degradation at 10 uM measured after 9 hrs by western blot analysis; assay type: cell-based
[18] = molecular target: T3, Stimulator of interferon genes protein (Mus musculus); test: Inhibition of STING in mouse RAW264.7 cells assessed as reduction in DMXAA-induced IFN-beta mRNA expression at 5 to 20 uM pretreated for 1 hr followed by stimulation with DMXAA for 24 hrs by qRT-CPR analysis; assay type: cell-based; details: dose 5-20 µM, time 25.0 hrs
[19] = molecular target: T1, Protein cereblon/Stimulator of interferon genes protein; test: PROTAC activity at CRBN/STING in human THP-1 cells assessed as inhibition of cGAMP-induced ISG56 mRNA expression incubated for 1 hr followed by stimulation with cGAMP for 24 hrs by qRT-PCR analysis; assay type: cell-based; details: dose 5-20 µM, time 25.0 hrs
[20] = tested on: Mus musculus; test: Anti-inflammatory activity against cisplatin-induced acute kidney injury C57BL/6J mouse model assessed as decrease in plasma BUN level at 25 to 50 mg/kg; assay type: functional, organism-based; details: dose 25-50 mg/kg
[21] = Toxicity against cisplatin-induced acute kidney injury C57BL/6J mouse model assessed as effect on liver morphology at 25 to 50 mg/kg by Hematoxylin-Eosin staining based microscopic analysis; assay type: organism-based; details: in vivo, dose 25-50 mg/kg
[22] = tested on: Mus musculus; test: Anti-inflammatory activity against C57BL/6J mouse assessed as inhibition of cisplatin-induced hepatic impairment by measuring restoration of AST activity at 25 to 50 mg/kg; assay type: functional, organism-based; details: dose 25-50 mg/kg

T2 sequence (Q8C7D2 whole entry, looked up, one chain of several): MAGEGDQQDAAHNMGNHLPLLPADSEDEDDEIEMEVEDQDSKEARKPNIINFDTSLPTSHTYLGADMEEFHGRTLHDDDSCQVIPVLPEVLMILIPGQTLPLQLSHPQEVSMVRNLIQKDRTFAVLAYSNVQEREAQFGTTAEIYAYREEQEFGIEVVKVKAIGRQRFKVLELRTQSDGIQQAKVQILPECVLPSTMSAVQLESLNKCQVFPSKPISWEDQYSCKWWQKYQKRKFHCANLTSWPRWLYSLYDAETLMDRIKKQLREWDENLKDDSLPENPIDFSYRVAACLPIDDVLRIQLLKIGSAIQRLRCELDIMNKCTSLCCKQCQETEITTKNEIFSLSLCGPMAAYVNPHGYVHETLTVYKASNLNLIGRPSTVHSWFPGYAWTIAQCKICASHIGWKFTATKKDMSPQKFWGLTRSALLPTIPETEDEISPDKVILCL
T1 sequence (Q86WV6 whole entry, looked up): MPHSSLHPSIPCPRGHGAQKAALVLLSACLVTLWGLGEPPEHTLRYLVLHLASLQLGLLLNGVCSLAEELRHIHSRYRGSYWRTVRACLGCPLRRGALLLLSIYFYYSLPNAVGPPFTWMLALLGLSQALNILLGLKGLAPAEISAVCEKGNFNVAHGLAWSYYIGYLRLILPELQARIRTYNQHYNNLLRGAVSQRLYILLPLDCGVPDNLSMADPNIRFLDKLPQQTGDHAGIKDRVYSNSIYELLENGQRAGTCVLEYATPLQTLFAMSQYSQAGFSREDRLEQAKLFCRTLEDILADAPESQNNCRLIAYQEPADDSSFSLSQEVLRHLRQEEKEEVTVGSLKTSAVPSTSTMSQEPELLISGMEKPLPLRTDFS
T1 sequence (Q96SW2 whole entry, looked up): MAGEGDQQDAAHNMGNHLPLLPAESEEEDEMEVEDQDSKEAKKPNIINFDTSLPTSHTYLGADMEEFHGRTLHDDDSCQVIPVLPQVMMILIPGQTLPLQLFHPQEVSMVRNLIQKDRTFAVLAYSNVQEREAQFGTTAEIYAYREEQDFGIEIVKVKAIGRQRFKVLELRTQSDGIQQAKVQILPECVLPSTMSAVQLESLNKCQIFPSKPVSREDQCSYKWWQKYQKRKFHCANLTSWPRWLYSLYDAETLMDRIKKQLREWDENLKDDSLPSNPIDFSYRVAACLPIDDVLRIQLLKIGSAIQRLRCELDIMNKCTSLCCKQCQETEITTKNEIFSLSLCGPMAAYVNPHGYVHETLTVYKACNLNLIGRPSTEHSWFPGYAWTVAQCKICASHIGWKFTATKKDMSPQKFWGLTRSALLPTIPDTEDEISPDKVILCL

O=C1CCC(N2C(=O)c3cccc(OCc4cn(CCCCCC(=O)OCCc5ccc(NC(=O)c6ccc([N+](=O)[O-])o6)cc5)nn4)c3C2=O)C(=O)N1 (configuration not stated)
Non-Toxic: Activity [9] | Activity [11] | Activity [15] | Activity [21]
active: Activity [1] Dose-Dependent Effect | Activity [4] | Activity [5] | inhibition [6] Dose-Dependent Effect | inhibition [8] | Activity [10] | inhibition [12] | Activity [13] Dose-Dependent Effect | inhibition [14] | Activity [17] | inhibition [18] Dose-Dependent Effect | Activity [19] Dose-Dependent Effect | Activity [20] | Activity [22]
82%: Activity [2]
inactive: Activity [3] | Activity [7] | Activity [16]
